Data published in PMC3156385 (Chemical research in toxicology, 2011).

Columns and labels:
rat liver P450 1A1 = biological target: T1, rat liver P450 1A1 (Rattus norvegicus, UniProt P00185); assay type: binding; conditions: 1.5 µM rat P450 1A1 (low-spin); 1.25~80 µM BSC
T1 sequence (P00185 1-524): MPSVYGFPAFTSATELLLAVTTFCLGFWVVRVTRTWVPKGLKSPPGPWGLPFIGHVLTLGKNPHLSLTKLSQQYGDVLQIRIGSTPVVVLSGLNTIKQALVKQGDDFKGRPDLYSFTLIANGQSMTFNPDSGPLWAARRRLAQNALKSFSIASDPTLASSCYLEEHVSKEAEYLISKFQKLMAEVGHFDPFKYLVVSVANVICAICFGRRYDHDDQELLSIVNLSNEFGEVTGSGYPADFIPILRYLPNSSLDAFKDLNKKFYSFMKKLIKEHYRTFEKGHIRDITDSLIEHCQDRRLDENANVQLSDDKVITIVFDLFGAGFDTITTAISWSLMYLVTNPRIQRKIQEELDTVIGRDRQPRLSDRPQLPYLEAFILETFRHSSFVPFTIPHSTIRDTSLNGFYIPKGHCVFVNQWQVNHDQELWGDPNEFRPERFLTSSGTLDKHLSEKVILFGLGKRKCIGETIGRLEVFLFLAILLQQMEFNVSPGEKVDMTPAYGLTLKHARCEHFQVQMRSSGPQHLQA

P450 1A2 [1] = biological target: T2, P450 1A2 (Homo sapiens, UniProt P05177); assay: Spectral binding titration with purified recombinant P450 1A2; conditions: for ΔAmax/Ks / ΔAmax: Reverse Type I binding, 1 µM P450; for ΔAmax: means ± SE
T2 sequence (P05177 1-516): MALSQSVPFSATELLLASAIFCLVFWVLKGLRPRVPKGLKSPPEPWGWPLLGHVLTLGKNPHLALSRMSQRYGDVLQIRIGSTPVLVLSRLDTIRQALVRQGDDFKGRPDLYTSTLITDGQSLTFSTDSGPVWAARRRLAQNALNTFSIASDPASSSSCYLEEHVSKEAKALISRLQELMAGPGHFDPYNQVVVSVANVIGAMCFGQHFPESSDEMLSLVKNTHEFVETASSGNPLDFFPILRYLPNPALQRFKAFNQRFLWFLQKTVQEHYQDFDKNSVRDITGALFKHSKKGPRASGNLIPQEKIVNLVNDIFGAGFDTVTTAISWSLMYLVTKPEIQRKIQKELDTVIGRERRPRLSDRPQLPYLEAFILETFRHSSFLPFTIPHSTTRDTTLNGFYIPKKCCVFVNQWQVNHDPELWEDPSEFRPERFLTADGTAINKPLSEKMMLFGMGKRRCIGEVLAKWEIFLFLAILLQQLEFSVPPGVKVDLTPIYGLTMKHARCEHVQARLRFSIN

rat liver P450 1A2 = biological target: T3, rat liver P450 1A2 (Rattus norvegicus, UniProt P04799); assay type: binding
T3 sequence (P04799 1-513): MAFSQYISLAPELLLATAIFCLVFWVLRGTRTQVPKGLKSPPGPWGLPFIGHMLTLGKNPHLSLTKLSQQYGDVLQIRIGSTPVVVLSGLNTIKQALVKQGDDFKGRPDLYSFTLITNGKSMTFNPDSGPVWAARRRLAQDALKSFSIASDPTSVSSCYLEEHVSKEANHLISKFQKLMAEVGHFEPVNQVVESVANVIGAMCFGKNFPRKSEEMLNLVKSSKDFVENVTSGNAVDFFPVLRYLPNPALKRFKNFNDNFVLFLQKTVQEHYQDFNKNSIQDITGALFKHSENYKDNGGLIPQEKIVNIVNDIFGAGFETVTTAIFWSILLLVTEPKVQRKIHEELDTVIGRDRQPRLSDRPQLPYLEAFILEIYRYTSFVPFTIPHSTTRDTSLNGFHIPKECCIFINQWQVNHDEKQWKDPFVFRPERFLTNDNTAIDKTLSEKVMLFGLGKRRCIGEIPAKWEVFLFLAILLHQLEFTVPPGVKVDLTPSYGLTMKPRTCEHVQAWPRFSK

P450 1A2 [2] = biological target: T2, P450 1A2; assay: Inhibition of P450 1A2-dependent EROD activity; assay type: biochemical
rabbit liver P450 1A2 = biological target: T4, rabbit liver P450 1A2 (Oryctolagus cuniculus, UniProt P00187); assay type: binding
T4 sequence (P00187 1-516): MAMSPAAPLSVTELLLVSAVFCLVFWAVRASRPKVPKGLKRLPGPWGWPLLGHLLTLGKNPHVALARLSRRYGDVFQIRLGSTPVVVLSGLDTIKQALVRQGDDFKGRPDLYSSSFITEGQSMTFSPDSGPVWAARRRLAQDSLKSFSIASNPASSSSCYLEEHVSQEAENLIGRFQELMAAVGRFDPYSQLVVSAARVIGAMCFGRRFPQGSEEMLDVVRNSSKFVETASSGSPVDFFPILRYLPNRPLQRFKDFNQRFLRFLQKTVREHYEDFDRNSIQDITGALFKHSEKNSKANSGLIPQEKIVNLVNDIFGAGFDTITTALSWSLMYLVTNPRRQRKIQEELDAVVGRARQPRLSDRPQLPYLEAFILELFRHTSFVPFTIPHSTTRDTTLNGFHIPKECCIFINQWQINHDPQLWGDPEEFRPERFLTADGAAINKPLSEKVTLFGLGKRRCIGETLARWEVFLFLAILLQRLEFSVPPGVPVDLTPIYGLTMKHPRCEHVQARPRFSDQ

P450 1A1 = biological target: T5, P450 1A1 (Homo sapiens, UniProt P04798); assay: Inhibition of P450 1A1-dependent EROD activity; assay type: biochemical
T5 sequence (P04798 1-512): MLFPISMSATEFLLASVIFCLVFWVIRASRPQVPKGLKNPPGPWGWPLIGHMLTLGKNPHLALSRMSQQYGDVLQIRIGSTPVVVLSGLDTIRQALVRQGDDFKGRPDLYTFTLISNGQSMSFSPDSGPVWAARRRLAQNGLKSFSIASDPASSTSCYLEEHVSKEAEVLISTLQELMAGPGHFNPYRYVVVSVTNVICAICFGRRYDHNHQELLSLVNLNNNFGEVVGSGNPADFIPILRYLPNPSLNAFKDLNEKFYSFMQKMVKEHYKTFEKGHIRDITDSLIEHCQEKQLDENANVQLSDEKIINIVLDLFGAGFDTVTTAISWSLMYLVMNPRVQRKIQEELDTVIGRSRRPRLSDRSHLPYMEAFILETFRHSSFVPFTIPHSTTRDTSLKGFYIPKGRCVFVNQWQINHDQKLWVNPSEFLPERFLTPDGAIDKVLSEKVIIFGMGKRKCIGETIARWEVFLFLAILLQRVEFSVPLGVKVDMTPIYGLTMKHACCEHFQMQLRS

Structure (SMILES) | spectral changes (rat liver P450 1A1) | Kd (P450 1A2 [1]) [µM] | ΔAmax/Ks (P450 1A2 [1]) | ΔAmax (P450 1A2 [1]) | Kd (rat liver P450 1A2) [µM] | IC50 (P450 1A2 [2]) [µM] | Kd (rabbit liver P450 1A2) [µM] | IC50 (P450 1A1) [µM]
N#C[Se]Cc1ccccc1 [BSC, benzyl selenocyanate] | did not show any spectral changes | 11 ± 2.3 | 0.88 × 10^−3 | 9.5 ± 0.57 × 10^−3 | 16 ± 2.4 | 1.3 ± 0.22 | 90 ± 29 | 0.45 ± 0.038
N#C[Se]Cc1cccc(C[Se]C#N)c1 [m-XSC, 1,3-phenylenebis(methylene)selenocyanate] |  | 13 ± 1.9 | 0.46 × 10^−3 | 5.8 ± 0.25 × 10^−3 |  |  |  | 
